Earlier results as cited in patent US20060106545A1, “Methods of clustering proteins” (Jubilant Biosys Ltd., priority 2004, published 2006).

Tests used:
[1] = tested on: MKK (Mitogen activated protein kinase kinase)
CK2 (Casein kinase 2) = CK2 (Casein kinase 2) (Homo sapiens, UniProt P68400)
PKB (Protein kinase B) = PKB (Protein kinase B) (Homo sapiens, UniProt P31749)
[2] = biological target: MAPK2 (Mitogen-activated protein kinase 2) (Homo sapiens, UniProt P28482)
SAPK2 = details: kinase SAPK2
[3] = biological target: T1, SAPK3 (Stress-activated protein kinase 3) (Homo sapiens, UniProt P53778)
T1 sequence (P53778 1-367): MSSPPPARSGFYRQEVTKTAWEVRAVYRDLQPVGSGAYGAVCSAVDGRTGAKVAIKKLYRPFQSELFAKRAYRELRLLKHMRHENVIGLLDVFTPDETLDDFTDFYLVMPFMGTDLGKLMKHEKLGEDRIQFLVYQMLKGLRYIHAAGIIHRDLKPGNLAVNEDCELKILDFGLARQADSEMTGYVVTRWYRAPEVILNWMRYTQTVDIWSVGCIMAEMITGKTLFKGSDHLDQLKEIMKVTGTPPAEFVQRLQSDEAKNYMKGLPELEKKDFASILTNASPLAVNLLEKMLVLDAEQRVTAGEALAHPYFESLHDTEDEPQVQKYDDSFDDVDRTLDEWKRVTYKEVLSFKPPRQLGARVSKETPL

Sequence of CK2 (Casein kinase 2) (P68400 whole entry): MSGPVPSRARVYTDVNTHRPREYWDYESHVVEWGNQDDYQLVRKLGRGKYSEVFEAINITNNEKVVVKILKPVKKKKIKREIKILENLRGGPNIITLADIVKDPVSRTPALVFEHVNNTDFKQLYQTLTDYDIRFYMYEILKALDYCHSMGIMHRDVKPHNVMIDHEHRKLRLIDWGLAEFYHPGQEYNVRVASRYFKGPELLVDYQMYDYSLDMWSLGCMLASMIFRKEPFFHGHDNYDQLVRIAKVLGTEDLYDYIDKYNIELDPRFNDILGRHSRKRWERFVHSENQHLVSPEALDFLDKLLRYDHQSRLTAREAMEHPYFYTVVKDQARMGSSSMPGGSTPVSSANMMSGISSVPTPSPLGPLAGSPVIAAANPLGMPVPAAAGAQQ
Sequence of PKB (Protein kinase B) (P31749 whole entry): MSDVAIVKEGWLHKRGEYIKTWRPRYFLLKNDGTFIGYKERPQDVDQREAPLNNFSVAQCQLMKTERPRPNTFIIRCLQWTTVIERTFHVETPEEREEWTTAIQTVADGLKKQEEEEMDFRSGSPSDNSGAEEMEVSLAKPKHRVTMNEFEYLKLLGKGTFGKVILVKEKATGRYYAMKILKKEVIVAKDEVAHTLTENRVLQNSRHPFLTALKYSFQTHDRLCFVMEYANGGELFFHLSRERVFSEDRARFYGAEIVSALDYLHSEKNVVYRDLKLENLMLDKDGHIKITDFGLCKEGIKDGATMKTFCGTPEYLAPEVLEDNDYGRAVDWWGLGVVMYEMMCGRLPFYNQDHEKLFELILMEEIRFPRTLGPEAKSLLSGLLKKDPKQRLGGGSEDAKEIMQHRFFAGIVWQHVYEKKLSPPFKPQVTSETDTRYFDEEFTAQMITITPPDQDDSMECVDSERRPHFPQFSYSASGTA
Sequence of MAPK2 (Mitogen-activated protein kinase 2) (P28482 whole entry): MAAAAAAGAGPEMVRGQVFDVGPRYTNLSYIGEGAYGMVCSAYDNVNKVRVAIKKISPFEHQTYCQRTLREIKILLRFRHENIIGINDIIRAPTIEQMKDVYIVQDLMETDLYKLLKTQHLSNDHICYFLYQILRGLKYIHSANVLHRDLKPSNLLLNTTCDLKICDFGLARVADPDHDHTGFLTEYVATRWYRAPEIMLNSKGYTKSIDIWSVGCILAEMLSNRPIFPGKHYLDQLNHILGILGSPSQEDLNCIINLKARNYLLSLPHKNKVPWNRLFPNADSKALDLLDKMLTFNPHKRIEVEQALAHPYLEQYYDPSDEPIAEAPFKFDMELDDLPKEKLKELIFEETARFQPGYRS

percentage of expression, Bain et al., (2003) [3]	Structure (SMILES)	% of Expression Bain et al. [1] [%]	% of Expression Bain et al., (2002) (CK2 (Casein kinase 2)) [%]	% of Expression Bain et al., (2002) (PKB (Protein kinase B))	% of Expression Bain et al., (2002) [2]	% of Expression Bain et al. (SAPK2) [%]
	O=C1Cc2c([nH]c3ccc(Br)cc23)-c2ccccc2N1 [Kenpaullone]	>80	>80	40-60%	60-80%	
more than 80%	CC(C)[C@H](CO)Nc1nc(Nc2cccc(Cl)c2)c2ncn(C(C)C)c2n1 [Purvalanol]					>80
